From patent US12077503B2, “Substituted cyclic amides and their use as herbicides” (FMC CORPORATION, priority 2015, dated 2024)

Key:
Format in all cases: in vivo
[1] = system: ragweed (common ragweed, Ambrosia elatior); experiment: Test A postemergence; details: Ambrosia artemisiifolia, post-emergence, 240 h, postemergence; for pest or weed control at 125 g/ha: 125 g ai/ha, visual injury vs untreated controls after approx. 10 d, 0 = no effect, 100 = complete control, read-out: Ragweed plant response rating (0 to 100 scale); for pest or weed control at 500 g/ha: 500 g ai/ha, 0 to 100 scale, 0 is no effect, 100 is complete control, read-out: Ragweed plant response rating
Procedure, shortened: (§1)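 Each rating is a visual injury score from 0 to 100 given about 10 d after treatment, judged against untreated controls kept alongside in the greenhouse. In loam soil–sand blend, seeds got a preemergence directed soil spray, while postemergence plants were 2 to 10 cm tall at spraying.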

[2] = system: ryegrass, Italian (Italian ryegrass, Lolium multiflorum); experiment: Test A postemergence; details: Lolium multiflorum, post-emergence, 240 h, postemergence; for pest or weed control at 125 g/ha: 125 g ai/ha, visual injury vs untreated controls after approx. 10 d, 0 = no effect, 100 = complete control, read-out: Ryegrass, Italian plant response rating (0 to 100 scale); for pest or weed control at 500 g/ha: 500 g ai/ha, 0 to 100 scale, 0 is no effect, 100 is complete control, read-out: Ryegrass, Italian plant response rating
Procedure, shortened: as §1

[3] = system: pigweed (Amaranthus retroflexus); experiment: Test A postemergence; details: Amaranthus retroflexus, post-emergence, 240 h, postemergence; for pest or weed control at 125 g/ha: 125 g ai/ha, visual injury vs untreated controls after approx. 10 d, 0 = no effect, 100 = complete control, read-out: Pigweed plant response rating (0 to 100 scale); for pest or weed control at 500 g/ha: 500 g ai/ha, 0 to 100 scale, 0 is no effect, 100 is complete control, read-out: Pigweed plant response rating
Procedure, shortened: as §1

[4] = system: barnyardgrass (Echinochloa crus-galli); experiment: Test A postemergence; details: Echinochloa crus-galli, post-emergence, 240 h, postemergence; for pest or weed control at 125 g/ha: 125 g ai/ha, visual injury vs untreated controls after approx. 10 d, 0 = no effect, 100 = complete control, read-out: Barnyardgrass plant response rating (0 to 100 scale); for pest or weed control at 500 g/ha: 500 g ai/ha, 0 to 100 scale, 0 is no effect, 100 is complete control, read-out: Barnyardgrass plant response rating
Procedure, shortened: as §1

corn (Zea mays) = experiment: Test A postemergence; details: Zea mays, post-emergence, 240 h, postemergence; for plant injury at 125 g/ha: 125 g ai/ha, visual injury vs untreated controls after approx. 10 d, 0 = no effect, 100 = complete control, read-out: Corn plant response rating (0 to 100 scale); for plant injury at 500 g/ha: 500 g ai/ha, 0 to 100 scale, 0 is no effect, 100 is complete control, read-out: Corn plant response rating
Procedure, shortened: as §1

[5] = system: blackgrass (Alopecurus myosuroides); experiment: Test A postemergence; details: Alopecurus myosuroides, post-emergence, 240 h, postemergence; for pest or weed control at 125 g/ha: 125 g ai/ha, visual injury vs untreated controls after approx. 10 d, 0 = no effect, 100 = complete control, read-out: Blackgrass plant response rating (0 to 100 scale); for pest or weed control at 500 g/ha: 500 g ai/ha, 0 to 100 scale, 0 is no effect, 100 is complete control, read-out: Blackgrass plant response rating
Procedure, shortened: as §1

[6] = system: giant foxtail (Setaria faberii); experiment: Test A postemergence; details: Setaria faberi, post-emergence, 240 h, postemergence; for pest or weed control at 125 g/ha: 125 g ai/ha, visual injury vs untreated controls after approx. 10 d, 0 = no effect, 100 = complete control, read-out: Foxtail, Giant plant response rating (0 to 100 scale); for pest or weed control at 500 g/ha: 500 g ai/ha, 0 to 100 scale, 0 is no effect, 100 is complete control, read-out: Foxtail, Giant plant response rating
Procedure, shortened: as §1

Kochia (Kochia scoparia) [7] = experiment: Test A postemergence; details: Bassia scoparia, post-emergence, 240 h, postemergence; for pest or weed control at 125 g/ha: 125 g ai/ha, visual injury vs untreated controls after approx. 10 d, 0 = no effect, 100 = complete control, read-out: Kochia plant response rating (0 to 100 scale); for pest or weed control at 500 g/ha: 500 g ai/ha, 0 to 100 scale, 0 is no effect, 100 is complete control, read-out: Kochia plant response rating
Procedure, shortened: as §1

[8] = system: Galium (catchweed bedstraw, Galium aparine); experiment: Test A postemergence; details: Galium, post-emergence, 240 h, postemergence; for pest or weed control at 125 g/ha: 125 g ai/ha, visual injury vs untreated controls after approx. 10 d, 0 = no effect, 100 = complete control, read-out: Galium plant response rating (0 to 100 scale); for pest or weed control at 500 g/ha: 500 g ai/ha, 0 to 100 scale, 0 is no effect, 100 is complete control, read-out: Galium plant response rating
Procedure, shortened: as §1

[9] = system: ragweed (common ragweed, Ambrosia elatior); experiment: Test A preemergence; details: Ambrosia artemisiifolia, pre-emergence, 240 h, preemergence, 0 to 100 scale where 0 is no effect and 100 is complete control, read-out: Ragweed plant response rating; for pest or weed control at 125 g/ha: 125 g ai/ha, visual injury rating, approximately 10 d; for pest or weed control at 500 g/ha: 500 g ai/ha
Procedure, shortened: as §1

[10] = system: ryegrass, Italian (Italian ryegrass, Lolium multiflorum); experiment: Test A preemergence; details: Lolium multiflorum, pre-emergence, 240 h, preemergence, 0 to 100 scale where 0 is no effect and 100 is complete control, read-out: Ryegrass, Italian plant response rating; for pest or weed control at 125 g/ha: 125 g ai/ha, visual injury rating, approximately 10 d; for pest or weed control at 500 g/ha: 500 g ai/ha
Procedure, shortened: as §1

[11] = system: pigweed (Amaranthus retroflexus); experiment: Test A preemergence; details: Amaranthus retroflexus, pre-emergence, 240 h, preemergence, 0 to 100 scale where 0 is no effect and 100 is complete control, read-out: Pigweed plant response rating; for pest or weed control at 125 g/ha: 125 g ai/ha, visual injury rating, approximately 10 d; for pest or weed control at 500 g/ha: 500 g ai/ha
[12] = system: barnyardgrass (Echinochloa crus-galli); experiment: Test A preemergence; details: Echinochloa crus-galli, pre-emergence, 240 h, preemergence, 0 to 100 scale where 0 is no effect and 100 is complete control, read-out: Barnyardgrass plant response rating; for pest or weed control at 125 g/ha: 125 g ai/ha, visual injury rating, approximately 10 d; for pest or weed control at 500 g/ha: 500 g ai/ha
Procedure, shortened: as §1

[13] = system: giant foxtail (Setaria faberii); experiment: Test A preemergence; details: Setaria faberi, pre-emergence, 240 h, preemergence, 0 to 100 scale where 0 is no effect and 100 is complete control, read-out: Foxtail, Giant plant response rating; for pest or weed control at 125 g/ha: 125 g ai/ha, visual injury rating, approximately 10 d; for pest or weed control at 500 g/ha: 500 g ai/ha
Procedure, shortened: as §1

Kochia (Kochia scoparia) [14] = experiment: Test A preemergence; details: Bassia scoparia, pre-emergence, 240 h, preemergence, 0 to 100 scale where 0 is no effect and 100 is complete control, read-out: Kochia plant response rating; for pest or weed control at 125 g/ha: 125 g ai/ha, visual injury rating, approximately 10 d; for pest or weed control at 500 g/ha: 500 g ai/ha
Procedure, shortened: as §1

CSc1ccccc1NC(=O)[C@H]1C(=O)N(C)CC[C@@H]1c1ccc(C(F)(F)F)cc1 [Compound 1227]
50%: pest or weed control at 125 g/ha [13]
20%: pest or weed control at 125 g/ha [3] | pest or weed control at 125 g/ha [10]
60%: pest or weed control at 500 g/ha [11]
40%: pest or weed control at 500 g/ha [12]
90%: pest or weed control at 500 g/ha [13]
0%: pest or weed control at 125 g/ha [1] | pest or weed control at 500 g/ha [1] | pest or weed control at 125 g/ha [2] | pest or weed control at 500 g/ha [2] | pest or weed control at 125 g/ha [4] | plant injury at 125 g/ha (corn (Zea mays)) | plant injury at 500 g/ha (corn (Zea mays)) | pest or weed control at 125 g/ha [5] | pest or weed control at 500 g/ha [5] | pest or weed control at 125 g/ha [6] | pest or weed control at 500 g/ha [6] | pest or weed control at 125 g/ha (Kochia (Kochia scoparia) [7]) | pest or weed control at 125 g/ha [8] | pest or weed control at 500 g/ha [8] | pest or weed control at 125 g/ha [9] | pest or weed control at 500 g/ha [9] | pest or weed control at 125 g/ha [12] | pest or weed control at 125 g/ha (Kochia (Kochia scoparia) [14]) | pest or weed control at 500 g/ha (Kochia (Kochia scoparia) [14])
30%: pest or weed control at 500 g/ha [3] | pest or weed control at 500 g/ha (Kochia (Kochia scoparia) [7]) | pest or weed control at 125 g/ha [11]
70%: pest or weed control at 500 g/ha [4] | pest or weed control at 500 g/ha [10]

CSc1ccccc1NC(=O)[C@H]1C(=O)N(C)C[C@@H]1c1ccc(F)cc1 [Compound 1236]
100%: pest or weed control at 125 g/ha [4] | pest or weed control at 500 g/ha [4] | pest or weed control at 500 g/ha [12] | pest or weed control at 500 g/ha [13]
80%: pest or weed control at 500 g/ha [10]
60%: plant injury at 125 g/ha (corn (Zea mays)) | pest or weed control at 500 g/ha [8] | pest or weed control at 125 g/ha [11]
90%: plant injury at 500 g/ha (corn (Zea mays)) | pest or weed control at 500 g/ha [6] | pest or weed control at 500 g/ha [11] | pest or weed control at 125 g/ha [12] | pest or weed control at 125 g/ha [13] | pest or weed control at 500 g/ha (Kochia (Kochia scoparia) [14])
20%: pest or weed control at 125 g/ha [3] | pest or weed control at 125 g/ha (Kochia (Kochia scoparia) [7]) | pest or weed control at 125 g/ha (Kochia (Kochia scoparia) [14])
50%: pest or weed control at 500 g/ha [2] | pest or weed control at 125 g/ha [8]
30%: pest or weed control at 125 g/ha [5] | pest or weed control at 500 g/ha [5] | pest or weed control at 125 g/ha [6] | pest or weed control at 500 g/ha (Kochia (Kochia scoparia) [7]) | pest or weed control at 500 g/ha [9] | pest or weed control at 125 g/ha [10]
0%: pest or weed control at 125 g/ha [1] | pest or weed control at 125 g/ha [2] | pest or weed control at 125 g/ha [9]
40%: pest or weed control at 500 g/ha [1] | pest or weed control at 500 g/ha [3]

Cc1ccccc1NC(=O)[C@H]1C(=O)N(C)C[C@@H]1c1ccc(C(F)(F)F)cc1 [Compound 1239]
70%: plant injury at 500 g/ha (corn (Zea mays)) | pest or weed control at 125 g/ha [5] | pest or weed control at 500 g/ha (Kochia (Kochia scoparia) [7]) | pest or weed control at 500 g/ha [9]
60%: pest or weed control at 500 g/ha [1] | pest or weed control at 125 g/ha [8] | pest or weed control at 500 g/ha [8] | pest or weed control at 500 g/ha [11]
50%: pest or weed control at 500 g/ha [2] | pest or weed control at 125 g/ha [3] | pest or weed control at 500 g/ha [3] | plant injury at 125 g/ha (corn (Zea mays)) | pest or weed control at 125 g/ha [10] | pest or weed control at 500 g/ha [10]
80%: pest or weed control at 500 g/ha [4] | pest or weed control at 500 g/ha [5] | pest or weed control at 125 g/ha [12]
0%: pest or weed control at 125 g/ha [9]
40%: pest or weed control at 125 g/ha (Kochia (Kochia scoparia) [7])
20%: pest or weed control at 125 g/ha [1] | pest or weed control at 125 g/ha [2] | pest or weed control at 125 g/ha [11]
90%: pest or weed control at 125 g/ha [4] | pest or weed control at 125 g/ha [6] | pest or weed control at 500 g/ha [6] | pest or weed control at 500 g/ha [12] | pest or weed control at 125 g/ha [13] | pest or weed control at 500 g/ha [13] | pest or weed control at 125 g/ha (Kochia (Kochia scoparia) [14])
